The supplement of paper PMC10627819

Experiments:
B. subtilis 168 = assay: fitness (endpoint OD595 vs no drug) (fraction); higher = more growth
In short: (§1)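 At 37 °C, bacteria in TSB, LB Lennox or CY were grown in 384-well plates from a starting OD595 of 0.01. OD595 was measured every 30 min for 14 h, with the first reading used as background. Fitness is the optical density at the switch to stationary phase as a fraction of the robust mean of no-drug control wells, capped at 1.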

S. pneumoniae D39V = assay: as above
In short: as §1
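Further: OD595 on entry to stationary phase over no-drug wells; at most 1.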

CN(C)[C@@H]1C(O)=C(C(N)=O)C(=O)[C@@]2(O)C(O)=C3C(=O)c4c(O)ccc(Cl)c4[C@@](C)(O)[C@H]3C[C@@H]12 [Chlortetracycline] + CN(C)C(=O)C(CCN1CCC(O)(c2ccc(Cl)cc2)CC1)(c1ccccc1)c1ccccc1 [Loperamide]
Details	fitness
B. subtilis 168, first compound 0.0475 µg/mL, partner 50 µg/mL	0.0353
B. subtilis 168, first compound 0.0475 µg/mL, partner 100 µg/mL	0.0088
B. subtilis 168, first compound 0.095 µg/mL, partner 25 µg/mL	0.0158
B. subtilis 168, first compound 0.095 µg/mL, partner 50 µg/mL	0.0367
B. subtilis 168, first compound 0.095 µg/mL, partner 100 µg/mL	0.0243
B. subtilis 168, first compound 0.19 µg/mL, partner 25 µg/mL	0.0386
B. subtilis 168, first compound 0.19 µg/mL, partner 50 µg/mL	0.05
B. subtilis 168, first compound 0.19 µg/mL, partner 100 µg/mL	0.0328
S. pneumoniae D39V, first compound 0.012 µg/mL, partner 17.14 µg/mL	0.967
S. pneumoniae D39V, first compound 0.012 µg/mL, partner 34.28 µg/mL	0.899
S. pneumoniae D39V, first compound 0.024 µg/mL, partner 17.14 µg/mL	0.926
S. pneumoniae D39V, first compound 0.024 µg/mL, partner 34.28 µg/mL	0.909
S. pneumoniae D39V, first compound 0.048 µg/mL, partner 17.14 µg/mL	0.829
S. pneumoniae D39V, first compound 0.048 µg/mL, partner 34.28 µg/mL	0.844
S. pneumoniae D39V, first compound 0.375 µg/mL, partner 20 µg/mL	0.0446
S. pneumoniae D39V, first compound 0.375 µg/mL, partner 40 µg/mL	0.0664
S. pneumoniae D39V, first compound 0.375 µg/mL, partner 80 µg/mL	0.065
S. pneumoniae D39V, first compound 0.75 µg/mL, partner 20 µg/mL	0.0563
S. pneumoniae D39V, first compound 0.75 µg/mL, partner 40 µg/mL	0.0762
S. pneumoniae D39V, first compound 0.75 µg/mL, partner 80 µg/mL	0.0821
S. pneumoniae D39V, first compound 1.5 µg/mL, partner 20 µg/mL	0.04
S. pneumoniae D39V, first compound 1.5 µg/mL, partner 40 µg/mL	0.0491
S. pneumoniae D39V, first compound 1.5 µg/mL, partner 80 µg/mL	0.0392

S. pneumoniae D39V, partner 68.57 µg/mL, one replicate
Details	fitness
first compound 0.012 µg/mL	0.908
first compound 0.024 µg/mL	0.92
first compound 0.048 µg/mL	0.8

CN(C)[C@@H]1C(O)=C(C(N)=O)C(=O)[C@@]2(O)C(O)=C3C(=O)c4c(O)ccc(Cl)c4[C@@](C)(O)[C@H]3C[C@@H]12 [Chlortetracycline] + CN(C)c1cc(NC(=O)CNC(C)(C)C)c(O)c2c1C[C@H]1C[C@H]3[C@H](N(C)C)C(O)=C(C(N)=O)C(=O)[C@@]3(O)C(O)=C1C2=O [Tigecycline]
Details	fitness
B. subtilis 168, first compound 0.0475 µg/mL, partner 0.039 µg/mL	0.924
B. subtilis 168, first compound 0.0475 µg/mL, partner 0.078 µg/mL	0.873
B. subtilis 168, first compound 0.0475 µg/mL, partner 0.156 µg/mL	0.823
B. subtilis 168, first compound 0.095 µg/mL, partner 0.039 µg/mL	0.828
B. subtilis 168, first compound 0.095 µg/mL, partner 0.078 µg/mL	0.781
B. subtilis 168, first compound 0.095 µg/mL, partner 0.156 µg/mL	0.784
B. subtilis 168, first compound 0.19 µg/mL, partner 0.039 µg/mL	0.651
B. subtilis 168, first compound 0.19 µg/mL, partner 0.078 µg/mL	0.605
B. subtilis 168, first compound 0.19 µg/mL, partner 0.156 µg/mL	0.5
S. pneumoniae D39V, first compound 0.012 µg/mL, partner 0.65 µg/mL	0.943
S. pneumoniae D39V, first compound 0.012 µg/mL, partner 1.3 µg/mL	0.98
S. pneumoniae D39V, first compound 0.012 µg/mL, partner 2.6 µg/mL	0.866
S. pneumoniae D39V, first compound 0.024 µg/mL, partner 0.65 µg/mL	0.949
S. pneumoniae D39V, first compound 0.024 µg/mL, partner 1.3 µg/mL	0.909
S. pneumoniae D39V, first compound 0.024 µg/mL, partner 2.6 µg/mL	0.862
S. pneumoniae D39V, first compound 0.048 µg/mL, partner 0.65 µg/mL	0.867
S. pneumoniae D39V, first compound 0.048 µg/mL, partner 1.3 µg/mL	0.814
S. pneumoniae D39V, first compound 0.048 µg/mL, partner 2.6 µg/mL	0.815
S. pneumoniae D39V, first compound 0.375 µg/mL, partner 0.325 µg/mL	0.0315
S. pneumoniae D39V, first compound 0.375 µg/mL, partner 0.65 µg/mL	0.0403
S. pneumoniae D39V, first compound 0.375 µg/mL, partner 1.3 µg/mL	0.0368
S. pneumoniae D39V, first compound 0.75 µg/mL, partner 0.325 µg/mL	0.0625
S. pneumoniae D39V, first compound 0.75 µg/mL, partner 0.65 µg/mL	0.0555
S. pneumoniae D39V, first compound 0.75 µg/mL, partner 1.3 µg/mL	0.0691
S. pneumoniae D39V, first compound 1.5 µg/mL, partner 0.325 µg/mL	0.0404
S. pneumoniae D39V, first compound 1.5 µg/mL, partner 0.65 µg/mL	0.0304
S. pneumoniae D39V, first compound 1.5 µg/mL, partner 1.3 µg/mL	0.0788

fitness, B. subtilis 168, one replicate
Details	first compound 0.0475 µg/mL	first compound 0.095 µg/mL	first compound 0.19 µg/mL
partner 0.125 µg/mL	0.996	0.974	0.827
partner 0.25 µg/mL	0.915	0.874	0.763
partner 0.5 µg/mL	0.933	0.879	0.84

CN(C)[C@@H]1C(O)=C(C(N)=O)C(=O)[C@@]2(O)C(O)=C3C(=O)c4c(O)ccc(Cl)c4[C@@](C)(O)[C@H]3C[C@@H]12 [Chlortetracycline] + CN[C@@H]1[C@H](O[C@H]2[C@H](O[C@H]3[C@H](O)[C@@H](O)[C@H](N=C(N)N)[C@@H](O)[C@@H]3N=C(N)N)O[C@@H](C)[C@]2(O)C=O)O[C@@H](CO)[C@H](O)[C@H]1O [Streptomycin]
fitness
Details	partner 2 µg/mL	partner 4 µg/mL	partner 8 µg/mL
B. subtilis 168, first compound 0.0475 µg/mL	0.863	0.729	–
B. subtilis 168, first compound 0.095 µg/mL	0.735	0.601	–
B. subtilis 168, first compound 0.19 µg/mL	0.473	0.367	0.0988
S. pneumoniae D39V, first compound 0.012 µg/mL	–	0.898	0.829
S. pneumoniae D39V, first compound 0.024 µg/mL	–	0.827	0.794
S. pneumoniae D39V, first compound 0.048 µg/mL	–	0.762	0.779
S. pneumoniae D39V, first compound 0.375 µg/mL	0.0439	0.0457	0.0281
S. pneumoniae D39V, first compound 0.75 µg/mL	0.0196	0.0558	0.0751
S. pneumoniae D39V, first compound 1.5 µg/mL	0.0385	0.0525	0.0578

fitness, S. pneumoniae D39V, one replicate
Details	first compound 0.012 µg/mL	first compound 0.024 µg/mL	first compound 0.048 µg/mL
partner 2 µg/mL	0.886	0.861	0.794
partner 16 µg/mL	0.757	0.72	0.619
